Reference: patent publication US5169863A, “Hypersphyxia-causing methods” (K.K. Ueno Seiyaku Oyo Kenkyujo, priority 1988, dated 1992)

Assays:
[1] = changing rate of blood pressure and heart rate by intravenous injection in anesthetized rats; format: in vivo, Wister male rats; conditions: for change in vivo at 1 mg/kg: Rattus norvegicus; for changing rate (%) of blood pressure / changing rate (%) of heart rate: Table 2
Procedure: (blood pressure, heart rate increasing action by intravenous injection) Wister male rats (8 weeks old) were used as test animals. The rats were applied to anesthesia by intraperitoneal administration with 1.25 g/kg of urethane. The blood pressure was determined by inserting a polyethylene tube into a femoral artery, which was connected with a pressure transducer. The heart rate was determined from R wave of electrocardiograms (ECG) induced by standard limb lead II with a tachometer. Each test compound was dissolved in ethanol and intravenously administered to rats in 1 mg/kg diluted with Ringer's solution just before use. The maximum concentration of ethanol was 2 percent. An ethanol-containing Ringer without any test compound was used as a control to confirm the influence of the ethanol in each experiment. Each changing rate (%) in the blood pressure and heart rate before and after administration was determined, and the average of 3-4 experiments was shown in Table 1. Changing rates of blood pressure and heart rate were determined in the same manner as described in Example 1 except that the test compounds 60, 61 and 62 were used in different concentrations instead of the test compounds 1-55.

[2] = progressing a breath (change rate of breath rate); format: in vivo, Wister male rats; conditions: Rattus norvegicus, iv, tail vein, rats
Procedure: Wister male rats (8 weeks old) were applied to anesthesia by intraperitoneal administration with 1.25 g/kg of urethane. A pick-up for breath was fixed on a top of a rat's nose, and the breath curve was recorded on a polygraph while the breath rate was counted with a tachometer.
Each test compound was dissolved in ethanol and administered to rats through a tale vein in 1 mg/kg as diluted with Ringer's solution just before use. The maximum concentration of ethanol was 2 percent. Ringers solution containing ethanol but not containing test compound was administered at every experiment as a control. The change rates (%) of the breath rate before and after administration were determined, and evaluated as progressing activity of breath.

[3] = Table 1, read-out: changing rate of blood pressure
[4] = Table 1, read-out: changing rate of heart rate

Row | Compound | change in vivo at 1 mg/kg [1, 3] | change in vivo at 1 mg/kg [1, 4] | change in vivo at 1 mg/kg [2] | also measured
1 | CCCCCC(=O)CC[C@H]1[C@H](O)CC(=O)[C@@H]1CCCCCCC(=O)O [Compound 1, 13,14-dihydro-15-keto-PGE1, reference compound] | -6% | 6% | 34% | –
2 | CCCCC(F)C(=O)/C=C/[C@H]1[C@H](O)CC(=O)[C@@H]1C/C=C\CCCC(=O)OC (stereo partly shown) [Compound 55, 15-keto-16R,S-fluoro-PGE2 methyl ester] | 31% | 58% | – | –
3 | COC(=O)CCCCC(=O)C[C@H]1C(=O)C[C@@H](CO)[C@@H]1CCC(=O)CCCC(C)C [Compound 16, 13,14-dihydro-6,15-diketo-11-dehydroxy-11R-hydroxymethyl-19-methyl-PGE1 methyl ester] | 26% | 25% | – | –
4 | CCCCC(C)C(=O)CC[C@H]1[C@H](O)CC(=O)[C@@H]1CC(=O)CCCCC(=O)OC (stereo partly shown) [Compound 10, 13,14-dihydro-6,15-diketo-16R,S-methyl-PGE1 methyl ester] | 22% | 37% | 63% | –
5 | COC(=O)CCC/C=C\C[C@H]1C(=O)C[C@@H](O)[C@@H]1CCC(=O)CCCC(C)C [Compound 43, 13,14-dihydro-15-keto-19-methyl-PGE2 methyl ester] | 14% | 45% | 41% | –
6 | CCCCC(C)C(=O)CC[C@H]1[C@H](O)CC(=O)[C@@H]1C/C=C\CCCC(=O)OC (stereo partly shown) [Compound 30, 13,14-dihydro-15-keto-16R,S-methyl-PGE2 methyl ester] | 14% | 29% | 61% | –
7 | CCCCC(O)C(=O)CC[C@H]1[C@H](O)CC(=O)[C@@H]1C/C=C\CCCC(=O)OCC (stereo partly shown) [Compound 35, 13,14-dihydro-15-keto-16R,S-hydroxy-PGE2 ethyl ester] | 17% | 27% | 37% | –
8 | CCCCCCCC(=O)CC[C@H]1[C@H](O)CC(=O)[C@@H]1CCCCCCC(=O)OC [Compound 4, 13,14-dihydro-15-keto-20-ethyl-PGE1 methy ester] | 6% | 33% | 48% | –
9 | CCCCCCCC(=O)CC[C@H]1[C@H](O)CC(=O)[C@@H]1C/C=C\CCCC(=O)OCC [Compound 52, 13,14-dihydro-15-keto-20-ethyl-PGE2 ethyl ester] | 13% | 0% | – | –
10 | CCCCCC(=O)CC[C@H]1[C@H](O)CC(=O)[C@@H]1CC(=O)CCCCC(=O)OCC (relative stereo) [Compound 8, (±) 13,14-dihydro-6,15-diketo-PGE1 ethyl ester] | 8% | – | 65% | –
11 | CCCCC(C)C(=O)CC[C@H]1[C@H](O)CC(=O)[C@@H]1CC(=O)CCCCC(=O)OCC (stereo partly shown) [Compound 11, 13,14-dihydro-6,15-diketo-16R,S-methyl-PGE1 ethyl ester] | 23% | 18% | 34% | –
12 | CCCCC(C)(C)C(=O)CC[C@H]1[C@H](O)CC(=O)[C@@H]1C/C=C\CCCC(=O)OC [Compound 33, 13,14-dihydro-15-keto-16,16-dimethyl-PGE2 methyl ester] | 20% | 28% | 40% | –
13 | CCCCC(F)C(=O)CC[C@H]1[C@H](C)CC(=O)[C@@H]1CC(=O)CCCCC(=O)OCC (stereo partly drawn) [Compound 19, 13,14-dihydro-6,15-diketo-16R,S-fluoro-11R-dehydroxy-11R-methyl-PGE1 ethyl ester] | 45% | 51% | – | –
14 | CCCCCC(F)C(=O)CC[C@H]1[C@H](O)CC(=O)[C@@H]1C/C=C\CCCC(=O)OC (stereo partly shown) [Compound 39, 13,14-dihydro-15-keto-16R,S-fluoro-20-methylPGE2 methyl ester] | 20% | 47% | – | –
15 | COC(=O)CCC/C=C\C[C@H]1C(=O)C[C@@H](O)[C@@H]1CCC(=O)CCCCC=C(C)C [Compound 50, 13,14-dihydro-15-keto-20-isopropylidene-PGE2 methyl ester] | 2% | 5% | 18% | –
16 | CCC[C@H](C)CC(=O)CC[C@H]1[C@H](O)CC(=O)[C@@H]1C/C=C\CCCC(=O)OC [Compound 42, 13,14-dihydro-15-keto-17S-methyl-PGE2 methyl ester] | 12% | 7% | 28% | –

Row | Compound | change in vivo at 1 mg/kg [1, 3] | change in vivo at 1 mg/kg [1, 4] | change in vivo at 1 mg/kg [2] | also measured
17 | CCCCCCC(=O)CC[C@H]1[C@H](O)CC(=O)[C@@H]1CCCCCCC(=O)OC [Compound 60, 13,14-dihydro-15-keto-20-methyl-PGE1 methyl ester] | – | – | – | changing rate (%) of blood pressure ([1]; 0.1 mg/kg): +17%; changing rate (%) of heart rate ([1]; 0.1 mg/kg): +14%; changing rate (%) of blood pressure ([1]; 1 mg/kg): +13%; changing rate (%) of heart rate ([1]; 1 mg/kg): +38%
18 | CCCCCC(=O)CC[C@H]1[C@H](O)CC(=O)[C@@H]1C/C=C\CCCC(=O)OCc1ccccc1 [Compound 25, 13,14-dihydro-15-keto-PGE2 benzyl ester] | 2% | 5% | 22% | –
19 | CCCCC(C)(C)C(=O)CC[C@H]1[C@H](O)CC(=O)[C@@H]1C/C=C\CCCC(=O)OCC [Compound 34, 13,14-dihydro-15-keto-16,16-dimethyl-PGE2 ethyl ester] | 6% | 29% | 31% | –
20 | CCCCC(C)(C)C(=O)CC[C@H]1[C@H](O)CC(=O)[C@@H]1CC(=O)CCCCC(=O)OCC [Compound 12, 13,14-dihydro-6,15-diketo-16,16-dimethyl-PGE1 ethyl ester] | 17% | 38% | 44% | –
21 | COCCCCCC(=O)CC[C@H]1[C@H](O)CC(=O)[C@@H]1C/C=C\CC(C)CC(=O)OC (stereo partly shown) [Compound 47, 13,14-dihydro-15-keto-3R,S-methyl-20-methoxy-PGE2 methyl ester] | 1% | 4% | 17% | –
22 | CCCCCC(=O)CC[C@H]1[C@H](O)CC(=O)[C@@H]1C/C=C\CC(C)CC(=O)OC (stereo partly shown) [Compound 28, 13,14-dihydro-15-keto-3R,S-methyl-PGE2 methyl ester] | 12% | 33% | 40% | –
23 | CCCCC(F)(F)C(=O)CC[C@H]1[C@H](O)CC(=O)[C@@H]1C/C=C\CCCC(=O)OC [Compound 61, 13,14-dihydro-15-keto-16,16-difluoro-PGE2 methyl ester] | – | – | – | changing rate (%) of blood pressure ([1]; 0.01 mg/kg): +13%; changing rate (%) of heart rate ([1]; 0.01 mg/kg): +14%; changing rate (%) of blood pressure ([1]; 0.1 mg/kg): +15%; changing rate (%) of heart rate ([1]; 0.1 mg/kg): +30%; changing rate (%) of blood pressure ([1]; 1 mg/kg): +27%; changing rate (%) of heart rate ([1]; 1 mg/kg): +26%
24 | CCCCC[C@H](O)/C=C/[C@H]1[C@H](O)CC(=O)[C@@H]1C/C=C\CCCC(=O)O [Compound 57, PGE2, reference compound] | -39% | 14% | 55% | blood pressure effect (in words) ([1]; Example 1 conclusion): blood pressure decreasing effect
25 | CCCCCCCCC(=O)CC[C@H]1[C@H](O)CC(=O)[C@@H]1C/C=C\CCCC(=O)OC [Compound 54, 13,14-dihydro-15-keto-20-n-propyl-PGE2 methyl ester] | 18% | 18% | – | –
26 | CCOC(=O)CCCCC(=O)C[C@H]1C(=O)C[C@@H](O)[C@@H]1CCC(=O)CCC(C)CC (stereo partly shown) [Compound 62, 13,14-dihydro-6,15-diketo-18-methyl-PGE1 ethyl ester] | – | – | – | changing rate (%) of heart rate ([1]; 0.1 mg/kg): +6%; changing rate (%) of heart rate ([1]; 1 mg/kg): +13%
27 | COCCCCC(C)(C)C(=O)CC[C@H]1[C@H](O)CC(=O)[C@@H]1C/C=C\CCCC(=O)OC [Compound 48, 13,14-dihydro-15-keto-16,16-dimethyl-20-methoxy-PGE2 methyl ester] | 15% | 30% | – | –
28 | CCCCCC(=O)CC[C@H]1[C@H](O)CC(=O)[C@@H]1CCCCC=CC(=O)OC [Compound 3, 13,14-dihydro-15-keto-Δ^2 -PGE1 methyl ester] | 32% | 43% | – | –
29 | CCCCCC(=O)CC[C@H]1[C@H](C)CC(=O)[C@@H]1CC(=O)CCCCC(=O)OC [Compound 17, 13,14-dihydro-6,15-diketo-11-dehydroxy-11R-methyl-PGE1 methyl ester] | 46% | 58% | – | –
30 | CCCCC[C@H](O)/C=C/[C@H]1[C@H](O)CC(=O)[C@@H]1CCCCCCC(=O)O [Compound 56, PGE1, reference compound] | -54% | 10% | – | –
31 | CCCCCCCC(=O)CC[C@H]1[C@H](C)CC(=O)[C@@H]1C/C=C\CCCC(=O)OC [Compound 53, 13,14-dihydro-15-keto-20-ethyl-11-dehydroxy-11R-methyl-PGE2 methyl ester] | 17% | 20% | – | –
